According to patent US7981903B2, “2-[2-{phenylamino}-1H-pyrrolo[2,3-D]pyrimidin-4-yl)amino] benzamide derivatives as IGF-1R inhibitors for the treatment of cancer” (GlaxoSmithKline LLC, priority 2007, dated 2011):
pIC50: −log10 of the molar value.

How the values were obtained:
human IGF1R (hIGF1R) = molecular target: T1, human IGF1R (hIGF1R) (Homo sapiens, UniProt P08069); assay: TR-FRET kinase assay of purified hIGF1R; assay type: biochemical; conditions: activated hIGF1R 0.5 nM, 10 μM ATP, values given as pIC50 category, read-out: IGF-1R pIC50 (converted)
T1 construct: containing amino acid residues 957-1367 of human IGF1R; made in house; host or cells: Sf9 cells (baculovirus)
T1 sequence (P08069 957-1367): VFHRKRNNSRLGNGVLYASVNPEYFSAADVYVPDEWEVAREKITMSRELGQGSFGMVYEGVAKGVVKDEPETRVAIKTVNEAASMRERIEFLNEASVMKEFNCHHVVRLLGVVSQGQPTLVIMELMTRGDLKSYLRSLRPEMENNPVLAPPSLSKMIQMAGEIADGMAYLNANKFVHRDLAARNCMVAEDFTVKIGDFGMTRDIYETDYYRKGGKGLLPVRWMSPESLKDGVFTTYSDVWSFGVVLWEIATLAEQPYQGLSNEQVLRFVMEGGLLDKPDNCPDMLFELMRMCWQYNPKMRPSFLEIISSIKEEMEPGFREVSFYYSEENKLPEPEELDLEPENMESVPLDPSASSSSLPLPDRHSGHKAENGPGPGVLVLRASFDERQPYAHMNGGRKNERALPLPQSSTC

[1] = molecular target: T2, NIH-3T3 cells overexpressing human IR (Homo sapiens, UniProt P06213); assay: IR cellular autophosphorylation (DELFIA); assay type: cell-based; conditions: 2 h compound, insulin 3 ug/ml for 15 minutes, IC50 category
T2 construct: expressed in transfected cells; host or cells: NIH-3T3 (mouse fibroblasts)
T2 sequence (P06213 28-1382): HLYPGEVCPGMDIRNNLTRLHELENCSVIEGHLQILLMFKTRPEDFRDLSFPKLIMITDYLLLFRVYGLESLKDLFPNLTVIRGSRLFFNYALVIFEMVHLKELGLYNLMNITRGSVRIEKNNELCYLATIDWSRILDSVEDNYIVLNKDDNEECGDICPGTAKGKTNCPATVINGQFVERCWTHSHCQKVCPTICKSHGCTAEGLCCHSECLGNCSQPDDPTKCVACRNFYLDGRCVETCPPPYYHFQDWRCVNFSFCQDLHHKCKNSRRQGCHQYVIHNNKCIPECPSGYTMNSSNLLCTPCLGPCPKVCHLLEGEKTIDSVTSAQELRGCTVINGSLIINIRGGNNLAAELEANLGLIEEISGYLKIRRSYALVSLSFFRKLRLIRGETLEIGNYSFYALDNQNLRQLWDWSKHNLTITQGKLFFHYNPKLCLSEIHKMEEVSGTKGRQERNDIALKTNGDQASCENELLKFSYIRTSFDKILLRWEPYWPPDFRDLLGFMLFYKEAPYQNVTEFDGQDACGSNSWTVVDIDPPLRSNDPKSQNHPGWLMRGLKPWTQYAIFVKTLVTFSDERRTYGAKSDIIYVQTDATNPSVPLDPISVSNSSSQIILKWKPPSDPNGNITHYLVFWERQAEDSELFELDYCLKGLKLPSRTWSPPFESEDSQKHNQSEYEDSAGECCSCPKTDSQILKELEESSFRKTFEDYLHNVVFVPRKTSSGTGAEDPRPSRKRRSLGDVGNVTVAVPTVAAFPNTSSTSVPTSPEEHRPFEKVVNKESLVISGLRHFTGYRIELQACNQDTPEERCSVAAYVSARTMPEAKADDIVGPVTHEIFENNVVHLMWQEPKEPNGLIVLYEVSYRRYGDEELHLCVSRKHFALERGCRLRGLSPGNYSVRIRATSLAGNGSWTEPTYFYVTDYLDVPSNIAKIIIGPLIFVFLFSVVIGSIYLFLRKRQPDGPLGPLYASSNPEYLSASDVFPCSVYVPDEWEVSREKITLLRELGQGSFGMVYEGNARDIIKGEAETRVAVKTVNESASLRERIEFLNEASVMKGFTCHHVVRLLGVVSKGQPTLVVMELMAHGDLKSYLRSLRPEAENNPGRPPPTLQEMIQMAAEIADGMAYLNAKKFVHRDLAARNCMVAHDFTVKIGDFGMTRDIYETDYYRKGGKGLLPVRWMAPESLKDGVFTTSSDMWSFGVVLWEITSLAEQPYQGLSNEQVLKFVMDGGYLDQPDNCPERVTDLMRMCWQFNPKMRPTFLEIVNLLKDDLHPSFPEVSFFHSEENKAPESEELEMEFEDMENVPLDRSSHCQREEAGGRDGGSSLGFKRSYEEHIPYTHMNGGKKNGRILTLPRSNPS
Protocol: NIH-3T3 cells overexpressing human IGF-1R or IR were plated in 96-well plates (10,000 cells/well) in culture media containing 10% fetal bovine serum and incubated at 37° C. in a 5% CO2 incubator. Twenty four hours post-plating, cells were treated with different concentrations of test compounds ranging from 30 uM to 1.5 nM. Two hours after compound addition, cells were stimulated with either human IGF-1 (30 ng/ml) or insulin (3 ug/ml) for 15 minutes. Cell lysates are analyzed for phosphorylated receptors using dissociation enhanced lanthanide fluor-immuno assay (DELFIA) with anti-IGF-1R (MAB391, R&D Systems, Minneapolis, Minn.) or anti-IRβ (sc-711, Santa Cruz Biotechnology, Santa Cruz, Calif.) capture antibody and europium-labeled anti-pTyr antibody (Eu-N1 PT66, Perkin Elmer, Waltham, Mass.) for detection. The fluorescence signal for cells treated with compounds was expressed as percent relative to 100% stimulation (IGF-1 or insulin stimulated signal).

human IR (hIR) = molecular target: T3, human IR (hIR) (Homo sapiens, UniProt P06213); assay: TR-FRET kinase assay of purified hIR; assay type: biochemical; conditions: activated hIR 0.5 nM, 10 μM ATP, values given as pIC50 category
T3 construct: containing amino acid residues 979-1382 of human IR; made in house; host or cells: Sf9 cells (baculovirus), same process as hIGF1R
T3 sequence (P06213 979-1382): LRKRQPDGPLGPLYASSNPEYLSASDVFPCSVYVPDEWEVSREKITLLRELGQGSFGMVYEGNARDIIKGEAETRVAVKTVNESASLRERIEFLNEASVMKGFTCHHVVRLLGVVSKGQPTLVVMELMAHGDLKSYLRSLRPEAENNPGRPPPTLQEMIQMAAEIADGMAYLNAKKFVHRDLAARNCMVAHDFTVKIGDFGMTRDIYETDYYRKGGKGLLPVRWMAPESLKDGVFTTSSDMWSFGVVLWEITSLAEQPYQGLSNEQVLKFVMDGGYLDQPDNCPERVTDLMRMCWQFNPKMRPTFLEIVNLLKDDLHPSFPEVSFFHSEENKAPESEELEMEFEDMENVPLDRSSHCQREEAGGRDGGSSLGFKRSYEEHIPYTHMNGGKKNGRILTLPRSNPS

[2] = molecular target: T4, NIH-3T3 cells overexpressing human IGF-1R (Homo sapiens, UniProt P08069); assay: IGF-1R cellular autophosphorylation (DELFIA); assay type: cell-based
T4 construct: expressed in transfected cells; host or cells: NIH-3T3 (mouse fibroblasts)
T4 sequence (P08069 31-1367): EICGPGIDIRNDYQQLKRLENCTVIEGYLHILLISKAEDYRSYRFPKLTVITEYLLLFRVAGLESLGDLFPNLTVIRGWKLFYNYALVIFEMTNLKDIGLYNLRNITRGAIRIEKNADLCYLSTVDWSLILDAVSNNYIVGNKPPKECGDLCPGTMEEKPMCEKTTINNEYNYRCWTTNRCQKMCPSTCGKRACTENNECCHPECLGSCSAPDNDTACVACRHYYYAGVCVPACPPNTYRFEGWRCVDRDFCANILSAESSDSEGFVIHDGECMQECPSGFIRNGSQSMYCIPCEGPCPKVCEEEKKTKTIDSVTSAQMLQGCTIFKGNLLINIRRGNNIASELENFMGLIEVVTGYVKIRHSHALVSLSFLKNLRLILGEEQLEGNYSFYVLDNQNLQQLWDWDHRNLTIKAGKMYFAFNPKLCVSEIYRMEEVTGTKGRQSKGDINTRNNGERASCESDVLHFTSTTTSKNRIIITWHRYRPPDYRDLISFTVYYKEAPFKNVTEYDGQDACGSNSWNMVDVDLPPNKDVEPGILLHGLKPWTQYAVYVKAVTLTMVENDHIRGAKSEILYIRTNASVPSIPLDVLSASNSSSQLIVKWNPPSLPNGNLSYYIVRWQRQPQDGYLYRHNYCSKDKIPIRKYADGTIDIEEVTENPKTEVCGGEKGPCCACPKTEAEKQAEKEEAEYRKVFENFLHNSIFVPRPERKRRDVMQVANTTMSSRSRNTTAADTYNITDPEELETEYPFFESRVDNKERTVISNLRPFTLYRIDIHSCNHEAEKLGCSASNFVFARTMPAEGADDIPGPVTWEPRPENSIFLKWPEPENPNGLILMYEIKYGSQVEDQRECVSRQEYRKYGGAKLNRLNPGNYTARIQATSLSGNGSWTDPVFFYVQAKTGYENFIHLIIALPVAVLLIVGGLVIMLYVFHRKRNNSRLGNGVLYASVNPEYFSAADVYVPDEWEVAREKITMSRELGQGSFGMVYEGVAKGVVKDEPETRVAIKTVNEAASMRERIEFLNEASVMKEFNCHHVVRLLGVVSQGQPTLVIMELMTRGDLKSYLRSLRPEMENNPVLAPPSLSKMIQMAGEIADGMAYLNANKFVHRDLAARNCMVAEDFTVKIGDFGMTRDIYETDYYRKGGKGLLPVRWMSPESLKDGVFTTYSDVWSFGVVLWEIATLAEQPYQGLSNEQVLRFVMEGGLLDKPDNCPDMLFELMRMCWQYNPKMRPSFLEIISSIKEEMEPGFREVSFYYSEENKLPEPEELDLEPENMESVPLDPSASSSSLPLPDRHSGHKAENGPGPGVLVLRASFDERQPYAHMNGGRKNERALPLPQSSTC
In short: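 Receptor autophosphorylation measured by DELFIA, capturing IGF-1R or IRβ and detecting with europium anti-pTyr, reported as percent of IGF-1- or insulin-stimulated signal. Compounds (30 uM to 1.5 nM) added 2 h before ligand, then 15 min stimulation (IGF-1 30 ng/ml or insulin 3 ug/ml).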

ALK = ALK (Homo sapiens, UniProt Q9UM73); assay: ALK enzyme assay (HTRF); assay type: biochemical; conditions: 0.25 nM ALK, 15.0 μM ATP, values given as pIC50 category
Chain of ALK (Q9UM73 19-1620): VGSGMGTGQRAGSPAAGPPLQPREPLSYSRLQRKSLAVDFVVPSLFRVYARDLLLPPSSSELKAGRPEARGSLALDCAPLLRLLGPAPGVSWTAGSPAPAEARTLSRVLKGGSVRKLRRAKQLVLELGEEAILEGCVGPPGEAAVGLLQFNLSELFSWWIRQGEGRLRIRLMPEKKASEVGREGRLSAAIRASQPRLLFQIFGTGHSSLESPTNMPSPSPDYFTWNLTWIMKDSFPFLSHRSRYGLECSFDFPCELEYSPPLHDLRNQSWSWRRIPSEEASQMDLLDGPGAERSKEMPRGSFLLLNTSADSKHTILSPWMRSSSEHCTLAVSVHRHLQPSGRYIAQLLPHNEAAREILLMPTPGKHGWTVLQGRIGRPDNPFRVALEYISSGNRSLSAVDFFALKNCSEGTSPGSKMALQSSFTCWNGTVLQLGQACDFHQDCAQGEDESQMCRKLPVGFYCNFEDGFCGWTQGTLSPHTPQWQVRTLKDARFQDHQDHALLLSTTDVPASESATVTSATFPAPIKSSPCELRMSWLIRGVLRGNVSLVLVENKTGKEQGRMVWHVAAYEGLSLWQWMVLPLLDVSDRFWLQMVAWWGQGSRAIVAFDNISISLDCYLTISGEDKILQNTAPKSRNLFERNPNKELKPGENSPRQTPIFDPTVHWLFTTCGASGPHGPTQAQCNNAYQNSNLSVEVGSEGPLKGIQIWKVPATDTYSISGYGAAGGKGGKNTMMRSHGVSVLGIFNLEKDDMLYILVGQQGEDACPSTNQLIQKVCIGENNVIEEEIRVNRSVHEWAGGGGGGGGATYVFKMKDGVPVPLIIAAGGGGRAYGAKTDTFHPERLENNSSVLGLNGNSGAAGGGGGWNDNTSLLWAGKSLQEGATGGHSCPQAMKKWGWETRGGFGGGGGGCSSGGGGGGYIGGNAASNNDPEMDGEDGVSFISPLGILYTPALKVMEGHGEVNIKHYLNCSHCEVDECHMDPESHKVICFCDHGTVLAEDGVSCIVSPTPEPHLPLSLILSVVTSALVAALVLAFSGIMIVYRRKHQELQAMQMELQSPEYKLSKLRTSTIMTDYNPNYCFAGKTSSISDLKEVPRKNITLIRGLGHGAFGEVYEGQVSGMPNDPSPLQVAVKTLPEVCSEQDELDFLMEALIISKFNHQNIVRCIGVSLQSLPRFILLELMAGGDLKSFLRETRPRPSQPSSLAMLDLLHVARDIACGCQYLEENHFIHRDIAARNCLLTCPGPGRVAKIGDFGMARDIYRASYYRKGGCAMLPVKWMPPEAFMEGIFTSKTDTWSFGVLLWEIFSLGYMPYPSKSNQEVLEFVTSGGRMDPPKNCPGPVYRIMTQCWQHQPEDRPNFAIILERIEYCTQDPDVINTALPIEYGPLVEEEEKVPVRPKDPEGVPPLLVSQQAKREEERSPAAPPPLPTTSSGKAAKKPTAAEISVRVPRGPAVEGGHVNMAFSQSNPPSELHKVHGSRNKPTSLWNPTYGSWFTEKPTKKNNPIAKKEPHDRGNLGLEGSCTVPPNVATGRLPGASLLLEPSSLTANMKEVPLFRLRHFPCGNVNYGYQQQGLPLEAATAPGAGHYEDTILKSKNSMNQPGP
In short: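 Isolated ALK phosphorylates a biotinylated tyrosine peptide, 120 min at 20° C; anti-phosphotyrosine Eu-cryptate/streptavidin-XL665 HTRF read after 60 min with EDTA-containing detection mix.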

SMILES	IC50 (human IGF1R (hIGF1R)) [nM]	pIC50 [1]	pIC50 (human IR (hIR))	pIC50 [2]	pIC50 (ALK)
CCCN1CCC=C(c2ccc(Nc3nc(Nc4ccccc4C(=O)NC)c4cc[nH]c4n3)c(OC)c2)C1 [Example 23, N-methyl-2-[(2-{[2-(methyloxy)-4-(1-propyl-1,2,5,6-tetrahydro-3-pyridinyl)phenyl]amino}-1H-pyrrolo[2,3-d]pyrimidin-4-yl)amino]benzamide]	1.26 to 3.98	6.30 to 7.00	9.00 to 9.60	6.30 to 7.00	9.00 to 9.60
CNC(=O)c1c(F)cc(Cl)cc1Nc1nc(Nc2cc3c(cc2OC)CCN3C(=O)CN(C)C)nc2[nH]ccc12 [Example 120, 4-chloro-2-[(2-{[1-(N,N-dimethylglycyl)-5-(methyloxy)-2,3-dihydro-1H-indol-6-yl]amino}-1H-pyrrolo[2,3-d]pyrimidin-4-yl)amino]-6-fluoro-N-methylbenzamide]	0.251 to 1	6.30 to 7.00	9.00 to 9.60	6.30 to 7.00	9.00 to 9.60
CNC(=O)c1c(F)cccc1Nc1nc(Nc2cc3c(cc2OC)C[C@H](C)N3C(=O)CN(C)C)nc2[nH]ccc12 [Example 251, 2-[(2-{[(2S)-1-(N,N-dimethylglycyl)-2-methyl-5-(methyloxy)-2,3-dihydro-1H-indol-6-yl]amino}-1H-pyrrolo[2,3-d]pyrimidin-4-yl)amino]-6-fluoro-N-methylbenzamide]	1.26 to 3.98	> 7.00	8.40 to 8.90	> 7.00	9.00 to 9.60
COc1cc(C)c(N(C)C(=O)CN(C)C)cc1Nc1nc(Nc2cccc(F)c2C(N)=O)c2cc[nH]c2n1 [Example 255, 2-[(2-{[5-[(N,N-dimethylglycyl)(methyl)amino]-4-methyl-2-(methyloxy)phenyl]amino}-1H-pyrrolo[2,3-d]pyrimidin-4-yl)amino]-6-fluorobenzamide]	5.01 to 200	< 6.30	6.80 to 8.30	< 6.30	6.70 to 8.30
CCCN1CCC=C(c2ccc(Nc3nc(Nc4cccc(F)c4C(N)=O)c4cc[nH]c4n3)c(OC)c2)C1 [Example 41, 2-fluoro-6-[(2-{[2-(methyloxy)-4-(1-propyl-1,2,5,6-tetrahydro-3-pyridinyl)phenyl]amino}-1H-pyrrolo[2,3-d]pyrimidin-4-yl)amino]benzamide]	1.26 to 3.98	6.30 to 7.00	8.40 to 8.90	6.30 to 7.00	9.00 to 9.60
CCCN1CCC=C(c2ccc(Nc3nc(Nc4cc5ccccc5cc4C(N)=O)c4cc[nH]c4n3)c(OC)c2)C1 [Example 29, 3-[(2-{[2-(methyloxy)-4-(1-propyl-1,2,5,6-tetrahydro-3-pyridinyl)phenyl]amino}-1H-pyrrolo[2,3-d]pyrimidin-4-yl)amino]-2-naphthalenecarboxamide]	1.26 to 3.98	6.30 to 7.00	8.40 to 8.90	6.30 to 7.00	8.40 to 8.90
COc1cc2c(cc1Nc1nc(Nc3cccc(F)c3C(N)=O)c3cc[nH]c3n1)N(C(=O)CN(C)C)[C@@H](C)C2 [Example 249, 2-[(2-{[(2S)-1-(N,N-dimethylglycyl)-2-methyl-5-(methyloxy)-2,3-dihydro-1H-indol-6-yl]amino}-1H-pyrrolo[2,3-d]pyrimidin-4-yl)amino]-6-fluorobenzamide]	0.251 to 1	> 7.00	9.00 to 9.60	> 7.00	8.40 to 8.90
CCCN1CCC=C(c2ccc(Nc3nc(Nc4ccc(Cl)cc4C(N)=O)c4cc[nH]c4n3)c(OC)c2)C1 [Example 108, 5-chloro-2-[(2-{[2-(methyloxy)-4-(1-propyl-1,2,5,6-tetrahydro-3-pyridinyl)phenyl]amino}-1H-pyrrolo[2,3-d]pyrimidin-4-yl)amino]benzamide]	0.251 to 1	6.30 to 7.00	9.00 to 9.60	6.30 to 7.00	9.00 to 9.60
CNC(=O)c1c(F)cccc1Nc1nc(Nc2cc(NC(=O)CN(C)C)c(C)cc2OC)nc2[nH]ccc12 [Example 256, 2-[(2-{[5-[(N,N-dimethylglycyl)amino]-4-methyl-2-(methyloxy)phenyl]amino}-1H-pyrrolo[2,3-d]pyrimidin-4-yl)amino]-6-fluoro-N-methylbenzamide]	0.251 to 1	6.30 to 7.00	9.00 to 9.60	> 7.00	9.00 to 9.60
Cc1ccc(NC(=O)CN(C)C)cc1Nc1nc(Nc2ccc(F)cc2C(N)=O)c2cc[nH]c2n1 [Example 62, 2-{[2-({5-[(N,N-dimethylglycyl)amino]-2-methylphenyl}amino)-1H-pyrrolo[2,3-d]pyrimidin-4-yl]amino}-5-fluorobenzamide]	1.26 to 3.98	6.30 to 7.00	9.00 to 9.60	6.30 to 7.00	6.70 to 8.30
COc1cc(C)c(NC(=O)CN(C)C)cc1Nc1nc(Nc2cccc(F)c2C(N)=O)c2cc[nH]c2n1 [Example 257, 2-[(2-{[5-[(N,N-dimethylglycyl)amino]-4-methyl-2-(methyloxy)phenyl]amino}-1H-pyrrolo[2,3-d]pyrimidin-4-yl)amino]-6-fluorobenzamide]	0.251 to 1	> 7.00	9.00 to 9.60	> 7.00	9.00 to 9.60
Cc1ccc(NC(=O)CN(C)C)cc1Nc1nc(Nc2ccccc2C(=O)NCc2ccc(F)cc2)c2cc[nH]c2n1 [Example 27, 2-{[2-({5-[(N,N-dimethylglycyl)amino]-2-methylphenyl}amino)-1H-pyrrolo[2,3-d]pyrimidin-4-yl]amino}-N-[(4-fluorophenyl)methyl]benzamide]	5.01 to 200	< 6.30	8.40 to 8.90	< 6.30	6.70 to 8.30
COc1cc(N2CCOCC2)ccc1Nc1nc(Nc2ccccc2C(N)=O)c2cc[nH]c2n1 [Example 12, 2-[(2-{[2-(methyloxy)-4-(4-morpholinyl)phenyl]amino}-1H-pyrrolo[2,3-d]pyrimidin-4-yl)amino]benzamide]	1.26 to 3.98	6.30 to 7.00	9.00 to 9.60	6.30 to 7.00	9.00 to 9.60
CCCN1CCC=C(c2ccc(Nc3nc(Nc4cc(Cl)ccc4C(N)=O)c4cc[nH]c4n3)c(OC)c2)C1 [Example 110, 4-chloro-2-[(2-{[2-(methyloxy)-4-(1-propyl-1,2,5,6-tetrahydro-3-pyridinyl)phenyl]amino}-1H-pyrrolo[2,3-d]pyrimidin-4-yl)amino]benzamide]	1.26 to 3.98	< 6.30	8.40 to 8.90	6.30 to 7.00	9.00 to 9.60
COc1cc(N2CCN(CC(C)C)CC2)ccc1Nc1nc(Nc2cc(F)ccc2C(N)=O)c2cc[nH]c2n1 [Example 80, 4-fluoro-2-{[2-({2-(methyloxy)-4-[4-(2-methylpropyl)-1-piperazinyl]phenyl}amino)-1H-pyrrolo[2,3-d]pyrimidin-4-yl]amino}benzamide]	1.26 to 3.98	6.30 to 7.00	9.00 to 9.60	> 7.00	9.00 to 9.60
CNC(=O)c1c(F)cccc1Nc1nc(Nc2cc(N(C)C(=O)CN(C)C)c(C)cc2OC)nc2[nH]ccc12 [Example 254, 2-[(2-{[5-[(N,N-dimethylglycyl)(methyl)amino]-4-methyl-2-(methyloxy)phenyl]amino}-1H-pyrrolo[2,3-d]pyrimidin-4-yl)amino]-6-fluoro-N-methylbenzamide]	–	< 6.30	6.80 to 8.30	< 6.30	6.70 to 8.30
